In one data set the test system is human telomerase. As to the kind of experiment: Telomerase activity by improved TRAP in transfected FaDu cells. Type of data set: cell-based. As for the experimental part: Inhibition of telomerase activity in cell lysates and intact cells. The modified Telomeric Repeat Amplification Protocol (TRAP) assay (Gan, et al., Pharm. Res., 18:488-493, 2001) was used to detect telomerase activity in cell lysate. The telomerase activity in intact cells was measured using intracellular TRAP, as follows. Cells (1×10^5) were washed twice with PBS and centrifuged. The cell pellet was resuspended in 100 μl of serum-free RPMI 1640 containing 5 u/ml of Streptolysin O, 2 μM of TS primer, and 50 μM of dNTP, and incubated at room temperature for 5 min. The enzyme streptolysin O was used to increase the cell membrane permeability to the TS primer. Upon entering a cell, the TS primer was elongated by the intracellular telomerase in situ. The elongated TS primer was then isolated from the cells and used as the template for PCR amplification. Then 200 μl of RPMI 1640 medium containing 10% FBS was added to the cells to stop the permeating process. […] The cells were then lyzed and the cell lysates, which contained the already extended TS primer, was directly analyzed by TRAP.
(§1) Effect of hTR antisense on telomere length and telomerase activity. Telomere length (referred to as terminal restriction fragment) was measured using the TALA method. Telomerase activity was measured using the improved TRAP method.

The test system of data set [1] is telomere length in FaDu cells. In words: Telomere length (terminal restriction fragment) by TALA in transfected FaDu cells. Type of data set: cell-based, human.
Excerpt: (§2) Measurement of telomere length in cultured cells. Two methods were used to measure telomere length. The first method was a solution hybridization based telomere amount and length assay (TALA) (Gan, et al., Pharm. Res., 18:1655-1659, 2001) that measures the mean length of the terminal restriction fragments (TRF). The second method was fluorescence in situ hybridization (FISH) to detect telomere signal and to estimate the approximate length of individual telomere structures at the end of chromosomes. The FISH method is as described in U.S. patent application Ser. No. 09/587,662 and Gan, et al., 2001.
as §1

The test system of the next data set is FaDu cells. In words: Cell growth of FaDu cells transfected with hTR antisense or sense. Type of data set: cell-based, human. The text has this: hTR antisense inhibits telomerase. The antisense study consisted of the following steps: (a) construction of a sense and antisense to the RNA portion of the human telomerase (hTR), (b) stable transfection of cells with the hTR antisense (or hTR sense control), and (c) determination of the ability of the hTR antisense to inhibit telomerase activity and induce telomere shortening. The methodologies are detailed in the art, for example, by Mo et al., Cancer Res. 2003.
Transfection procedures. Transfection of the antisense construct used an IPTG-inducible mammalian expression system. The resulting clones were used for experiments.
Effect of hTR antisense on cell growth. Table 2 summarizes the results which show a slower growth rate for the antisense +IPTG cells (i.e., cells that were transfected by hTR antisense and treated with IPTG to induce the expression of […]) compared to cells that had either not been transfected with the antisense, not transfected but treated with IPTG, transfected with the sense and treated with IPTG, or transfected with the antisense but without the IPTG induction (i.e., control, +IPTG, +sense +IPTG, and antisense).

The test system of the next data set is FaDu tumors. As to the kind of experiment: Low-dose suramin, tumor size in mice implanted with FaDu tumors. Type of data set: in vivo. The settings on record: one of six animals; suramin 10 mg/kg ip twice-weekly for 6 weeks. As to the method: Treatment Protocol. Immunosuppressed mice were injected subcutaneously in the thigh area with 5×10^5 FaDu cells. […] Tumor sizes were observed twice-weekly.

Data set [2] is described as follows: Suramin plasma pharmacokinetics in beagle dogs. In kind it is in vivo. The settings on record: 6.75 mg/kg iv infusion over 30 minutes. The source says:
Treatment protocol. […] The animals were cannulated in the cephalic veins of both front legs.

The target of data set [3] is T1, telomerase (Homo sapiens, UniProt O14746). As to the kind of experiment: Modified TRAP assay, telomerase activity in cell lysate (cell extract). In kind it is biochemical. Conditions: mean ± SD, read-out: IC50, inhibition of telomerase activity. As for the experimental part: Inhibition of telomerase activity in cell lysates and intact cells. The modified Telomeric Repeat Amplification Protocol (TRAP) assay (Gan, et al., Pharm. Res., 18:488-493, 2001) was used to detect telomerase activity in cell lysate. The telomerase activity in intact cells was measured using intracellular TRAP, as follows. Cells (1×10^5) were washed twice with PBS and centrifuged. The cell pellet was resuspended in 100 μl of serum-free RPMI 1640 containing 5 u/ml of Streptolysin O, 2 μM of TS primer, and 50 μM of dNTP, and incubated at room temperature for 5 min. The enzyme streptolysin O was used to increase the cell membrane permeability to the TS primer. Upon entering a cell, the TS primer was elongated by the intracellular telomerase in situ. The elongated TS primer was then isolated from the cells and used as the template for PCR amplification. Then 200 μl of RPMI 1640 medium containing 10% FBS was added to the cells to stop the permeating process. The mixture was incubated at 30° C. for 30 min to allow the extension of intracellular TS primer by telomerase. The cells were then lyzed and the cell lysates, which contained the already extended TS primer, was directly analyzed by TRAP.
Treatment Protocol. Treatment with suramin or AZT was initiated after cells were allowed to attach to the growth surface in culture flasks. […]
Target sequence in this assay (O14746 whole entry): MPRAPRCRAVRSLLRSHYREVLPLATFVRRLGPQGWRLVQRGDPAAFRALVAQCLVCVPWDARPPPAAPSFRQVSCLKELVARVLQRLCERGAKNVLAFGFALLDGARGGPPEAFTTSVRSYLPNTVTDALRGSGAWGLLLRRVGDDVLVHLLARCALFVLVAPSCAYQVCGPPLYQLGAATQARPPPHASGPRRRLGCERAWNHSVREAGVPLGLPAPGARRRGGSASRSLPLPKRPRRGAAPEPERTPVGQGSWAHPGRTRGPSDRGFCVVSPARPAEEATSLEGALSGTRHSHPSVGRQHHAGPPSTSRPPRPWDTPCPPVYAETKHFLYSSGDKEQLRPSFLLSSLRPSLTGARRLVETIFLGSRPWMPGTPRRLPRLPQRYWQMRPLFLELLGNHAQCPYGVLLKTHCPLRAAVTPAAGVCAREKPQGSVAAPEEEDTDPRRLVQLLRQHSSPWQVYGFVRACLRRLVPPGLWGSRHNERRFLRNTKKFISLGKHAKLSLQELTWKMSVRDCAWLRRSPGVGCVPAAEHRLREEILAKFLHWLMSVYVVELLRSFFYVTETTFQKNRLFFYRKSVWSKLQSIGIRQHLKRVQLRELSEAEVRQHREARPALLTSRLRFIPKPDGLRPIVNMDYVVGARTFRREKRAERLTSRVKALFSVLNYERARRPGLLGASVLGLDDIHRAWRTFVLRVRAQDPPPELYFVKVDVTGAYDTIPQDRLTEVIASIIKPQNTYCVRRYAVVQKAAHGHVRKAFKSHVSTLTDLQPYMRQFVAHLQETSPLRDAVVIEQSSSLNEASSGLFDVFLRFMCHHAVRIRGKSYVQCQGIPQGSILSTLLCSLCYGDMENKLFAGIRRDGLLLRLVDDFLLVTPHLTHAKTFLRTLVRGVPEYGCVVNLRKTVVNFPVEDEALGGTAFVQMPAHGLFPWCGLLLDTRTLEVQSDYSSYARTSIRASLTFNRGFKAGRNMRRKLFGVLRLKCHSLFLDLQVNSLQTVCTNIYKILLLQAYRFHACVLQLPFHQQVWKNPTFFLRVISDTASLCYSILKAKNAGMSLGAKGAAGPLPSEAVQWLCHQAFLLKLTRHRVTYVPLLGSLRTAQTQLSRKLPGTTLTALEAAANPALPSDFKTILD
Target sequence in this assay (O60832 whole entry partner): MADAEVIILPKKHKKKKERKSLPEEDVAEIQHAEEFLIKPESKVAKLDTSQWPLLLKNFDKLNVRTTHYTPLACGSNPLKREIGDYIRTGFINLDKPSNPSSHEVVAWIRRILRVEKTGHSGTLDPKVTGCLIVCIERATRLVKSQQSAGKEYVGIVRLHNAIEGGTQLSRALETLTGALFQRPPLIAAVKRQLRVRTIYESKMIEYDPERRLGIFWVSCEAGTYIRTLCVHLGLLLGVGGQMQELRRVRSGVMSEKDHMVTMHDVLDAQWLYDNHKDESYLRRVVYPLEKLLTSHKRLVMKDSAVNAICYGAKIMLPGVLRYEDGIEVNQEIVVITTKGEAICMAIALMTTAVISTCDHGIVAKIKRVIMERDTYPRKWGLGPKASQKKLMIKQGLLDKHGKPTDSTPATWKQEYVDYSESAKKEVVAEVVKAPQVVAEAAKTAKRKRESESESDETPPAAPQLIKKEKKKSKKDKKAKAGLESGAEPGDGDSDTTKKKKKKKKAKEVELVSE
Target sequence in this assay (Q9NPE3 whole entry partner): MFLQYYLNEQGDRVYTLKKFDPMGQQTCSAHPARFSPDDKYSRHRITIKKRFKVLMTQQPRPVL
Target sequence in this assay (Q9NX24 whole entry partner): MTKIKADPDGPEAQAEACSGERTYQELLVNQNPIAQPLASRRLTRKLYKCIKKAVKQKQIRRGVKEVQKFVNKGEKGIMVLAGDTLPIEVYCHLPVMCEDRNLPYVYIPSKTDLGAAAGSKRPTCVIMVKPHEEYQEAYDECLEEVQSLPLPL
Target sequence in this assay (Q9NY12 whole entry partner): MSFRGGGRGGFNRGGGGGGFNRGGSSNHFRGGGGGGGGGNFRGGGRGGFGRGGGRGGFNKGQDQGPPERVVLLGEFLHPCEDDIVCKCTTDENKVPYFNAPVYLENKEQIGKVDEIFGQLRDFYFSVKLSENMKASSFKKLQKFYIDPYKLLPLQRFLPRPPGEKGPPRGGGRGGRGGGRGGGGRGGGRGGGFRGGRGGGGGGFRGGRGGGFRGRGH

The subject of data set [4] is telomere length in FaDu and PC3 cells. As to the kind of experiment: Telomere length in cultured cells after prolonged treatment (TALA / FISH). In kind it is cell-based, human. The settings on record: prolonged treatment (7-15 weeks).
Excerpt: as §2
Treatment Protocol. Treatment with suramin or AZT was initiated after cells were allowed to attach to the growth surface in culture flasks. On the day of experiments, the culture medium was removed and replaced with inhibitor-containing medium.

A short description of the next data set: in vivo. Conditions: BALB/c nu/nu, mouse, plasma, intravenous, 10 mg/kg.
The target in data set [5] is T1, telomerase. In words: Telomerase IC50 determination, general method. In kind it is biochemical. Conditions: read-out: IC50 against telomerase. The text has this:
One method used to identify compounds of the invention that inhibit telomerase activity involves placing cells, tissues, or preferably a cellular extract or other preparation containing telomerase, in contact with several known concentrations of a test compound in a buffer compatible with telomerase activity. […] Other methods for determining the inhibitory concentration of a compound of the invention against telomerase can be employed as will be apparent to those of skill in the art based on the disclosure herein.
Target sequence in this assay (O14746 whole entry): as the sequence (O14746 whole entry) above

For data set [6] the following is noted: human patients; cited from earlier work.
In data set [7] the target is T1, telomerase. In words: Intracellular TRAP, telomerase activity in intact cells. Type of data set: cell-based. Conditions: mean ± SD, read-out: IC50, inhibition of telomerase activity.
Target sequence in this assay (O14746 whole entry): as above
Target sequence in this assay (O60832 whole entry partner): as the sequence (O60832 whole entry partner) above
Target sequence in this assay (Q9NPE3 whole entry partner): as the sequence (Q9NPE3 whole entry partner) above
Target sequence in this assay (Q9NX24 whole entry partner): as the sequence (Q9NX24 whole entry partner) above
Target sequence in this assay (Q9NY12 whole entry partner): as the sequence (Q9NY12 whole entry partner) above
Data set [8] can be described thus: Intravesical suramin in dogs: bladder contents, bladder wall and plasma concentrations. Conditions: for concentration at 120 min: beagle, dog, bladder wall tissue, other: intravesical, 6 mg/ml. Type of data set: in vivo. As to the method: Treatment protocol Five beagle dogs, weighing 9.0±0.4 kg, were used. The animals were cannulated in a cephalic vein for administration of anesthetics, and in a jugular vein for blood sampling. A urethral catheter was inserted for dose instillation and sampling of the bladder contents. […] Concentrations of the bladder contents and systemic plasma were sampled at frequent intervals for 120 minutes, at which time the bladder tissue was harvested and the animal sacrificed. Tissue sections of approximately 2 cm×2 cm surface area were cut from the bladder wall, and rapidly frozen on a flat stainless steel plate cooled on dry ice. The outer edges of the tissue samples were trimmed to avoid contamination with instillation fluid, and the frozen tissues cut into 40 μm sections parallel to the urothelial surface.

A further data set relates to FaDu tumor. In words: Telomere length by FISH in FaDu tumors implanted in mice. In kind it is in vivo. As for the experimental part: Treatment protocol. FaDu cells (0.5˜1×10^6 cells in a volume of 100 μl) were implanted subcutaneously in male BALB/c nu/nu mice. […] The first dose was administered immediately after tumor implantation, with repeat doses given twice a week thereafter. […] Frozen tissue sections were analyzed for telomere length in individual cells using fluorescent in situ hybridization. About 10 microscope fields at 400-fold magnification were randomly chosen for each section, and the percentage of tumor cells with attenuated or lost telomere signals were counted.

Results on two compounds are retold here after patent US20050282893A1 (priority 2004, published 2005).

The half-life is the time in which the quantity being followed falls by half. Broadly, the clearance is a measure of how efficiently the substance is removed, as volume per time. The IC50 is the concentration that inhibits the measured activity by half.

“And” between values parts separate entries of the source, which are not always exact repeats. Equal entries are not always repeated. Where two headings read alike, the source gives them in different places.

Take `CC(C)S[C@@H]1O[C@H](CO)[C@H](O)[C@H](O)[C@H]1O` [+IPTG]: the “Telomerase activity, % of control” value in the data set on human telomerase is listed as 98.9 % of control. In data set [1], this compound showed a Terminal restriction fragment of 2.91 kb. The Doubling time in the data set on FaDu cells worked out at 23 h.

Regarding `Cc1ccc(C(=O)Nc2ccc(S(=O)(=O)O)c3cc(S(=O)(=O)O)cc(S(=O)(=O)O)c23)cc1NC(=O)c1cccc(NC(=O)Nc2cccc(C(=O)Nc3cc(C(=O)Nc4ccc(S(=O)(=O)O)c5cc(S(=O)(=O)O)cc(S(=O)(=O)O)c45)ccc3C)c2)c1` [Suramin, suramin], the tumor outcome in the data set with FaDu tumors was “completely disappeared”. This compound also returned a terminal half-life in data set [2] (6.75 mg/kg) of 13 days. Also, in [2] (beagle, dog, plasma, read-out: terminal half-life (converted)), the half-life is 13 days. In addition, the clearance in data set [2] (beagle, dog, plasma, read-out: total clearance (converted)) is 2.1 mL/h/kg. Besides, the IC50 on telomerase [3] (MCF7, cell extract) was 2800 ± 1500 nM; at telomerase [3] (PC3, cell extract) it was 1600 ± 700 nM; at telomerase [5], less than 10 µM; at telomerase [7] (FaDu, intact cell), 1700 ± 1000 nM; on telomerase [7] (MCF7, intact cell), 1400 ± 1100 nM; on telomerase [7] (PC3, intact cell), 2300 ± 900 nM. Moreover, the telomere shortening entry in [4] is reported as “about 30%”. The concentration at 72 h in “in vivo” was ~10 µM and ~14000 ng/mL. Further, the “half-life, first phase of triphasic plasma decline” value in [6] is 5.5 h. In addition, the “half-life, second phase of triphasic plasma decline” value in data set [6] is 4.1 days. Besides, the “half-life, third phase of triphasic plasma decline” value in data set [6] was 78 days. The total body clearance in data set [6] was 0.0095 liter/hour/m^2. Besides, the “suramin concentration in the bladder contents” value in data set [8] (120 minutes after intravesical 6 mg/ml) amounted to 3.6 mg/mL. For the same compound, in [8] (at all times, intravesical 6 mg/ml), the plasma concentrations result is “less than 0.1 μg/ml”. Also, the concentration at 120 min is roughly 80000 ng/g in data set [8] (at 0 mm (urethral surface), 120 minutes, read-out: bladder wall tissue concentration); roughly 3000 ng/g in [8] (at approximately 2 mm depth, read-out: bladder wall tissue concentration); roughly 3000 ng/g in data set [8] (remainder of the bladder wall, read-out: bladder wall tissue concentration); 5000 to 100000 ng/g in data set [8] (summary of Example 13, read-out: concentrations in the targeted tissues after local administration). In the data set with FaDu tumor (10 mg/kg iv twice a week), the “bodyweight increase compared with saline” value was “undistinguishable rates of bodyweight increases”. The compound further had a tumor establishment rate in the data set with FaDu tumor (10 mg/kg iv twice a week from implantation) of 100%. The “fraction of cells with a reduced or eliminated telomere signal” value with FaDu tumor (first two weeks of treatment, 10 mg/kg iv twice a week) was “approximately 10%”; in the data set with FaDu tumor (week 3, 10 mg/kg iv twice a week), “approximately 40%”; with FaDu tumor (week 4, 10 mg/kg iv twice a week), 75%; in the data set on FaDu tumor (week 5, 10 mg/kg iv twice a week), “over 80%”; with FaDu tumor (week 6, 10 mg/kg iv twice a week), 95%.
